{"source": "patent US20250041307A1", "about": "“Uses of Bicyclic Compounds for the Treatment of Diseases” (Athira Pharma, Inc., priority 2021, published 2025)", "key": {"[1]": {"test": "In vitro stability in human plasma", "assay_type": "in vitro ADME", "settings": "5 μM, 37° C.", "description": "(§1) Bioavailability can be estimated by compound stability when exposed to conditions in the body. As an initial assessment of stability properties in a variety of conditions present in animals, exemplary compounds were tested for stability in a battery of simulated body compartments. Compounds were tested for stability in the following solutions: simulated gastric fluid (SGF: 34.2 mM NaCl, pH 1.2), simulated gastric fluid with the digestive enzyme pepsin (SGF+Enzyme: SGF with 3.2 mg/ml pepsin), simulated intestinal fluid with the mixture of enzymes in porcine pancreatin (SIF+Enzyme: 28.7 mM NaH2PO4, 105.7 mM NaCl, pH 6.8, 10 mg/ml pancreatin), rat plasma, and human plasma.\n(§2) Test compounds were incubated at a final concentration of 5 μM in the above solutions at 37° C. with samples removed at the following time points: 0, 1, 2, and 4 hours. Reactions were stopped and prepared for quantification by addition of excess quench solution containing an internal standard (acetonitrile, 200 ng/mL bucetin). Test compound and internal standard in each sample was quantified by LC-MS/MS, and after internal normalization to bucetin, test compound concentration was expressed as a percentage of concentration at the 0-hour time point. Stability in the relevant test solution was then determined by the percent remaining at the 4-hour time point."}, "[2]": {"test": "In vitro stability in rat plasma", "assay_type": "in vitro ADME", "settings": "5 μM, 37° C.", "description": "as §1, §2"}, "HGF/MET system": {"system": "HGF/MET system", "test": "Phospho-MET ELISA", "assay_type": "cell-based", "settings": "HEK293 cells; with 1 ng/mL recombinant HGF; 15 minutes; augmentation of MET phosphorylation (pMET ELISA)", "method_in_brief": "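Serum-starved (≥8 h) HEK293 cells treated with compound plus 1 ng/mL recombinant HGF for 15 min at 37° C in triplicate, then lysed in RIPA. Equal protein (50–100 μg, BCA-normalized) run in pMET sandwich ELISA, A450 read. Responses scaled 1–10 between 1 ng/mL and 10 ng/mL HGF means, using peak efficacy.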"}, "[3]": {"system": "scopolamine-induced cognitive impairment", "test": "Scopolamine-induced cognitive impairment, T-maze spontaneous alternation task", "assay_type": "in vivo, CD-1 mice", "parameters": "key to Significance (compared to scopolamine only): * = p < 0.05; ** = p < 0.01; ns = not significant", "settings": "mice; for Spontaneous alternations %: scopolamine 0.89 mg/kg; for Significance (compared to scopolamine only): spontaneous alternations", "source_text": "Mild cognitive impairment can be assessed in rodent models via delivery of various compounds that interfere with normal neurotransmitter signaling. Scopolamine is a compound that is well-known to antagonize muscarinic acetylcholine receptors, nicotinic receptors, as well as glutamatergic receptors such as NMDA receptors. Thus, delivery of scopolamine results in cognitive impairment, which can be assessed in a variety of cognitive tasks. Positive modulation of the HGF/MET system can promote NMDA receptor activation and results in pro-cognitive effects. Two test compounds, Compound 1a and Compound 5a, were evaluated for their ability to protect against scopolamine-induced cognitive impairment.\nIn this study, mild cognitive impairment was modeled in otherwise healthy male CD-1 mice (4-5 weeks old at study start) by acute delivery of 0.89 mg/kg scopolamine (dissolved in saline). Test compounds were administered via oral gavage 0.5 hours prior to scopolamine exposure, and cognitive performance was assessed in the T-maze spontaneous alternation task 0.5 hours after scopolamine exposure (1 hour following test compound exposure). The experimental protocol consisted of one single session, which started with 1 “forced-choice” trial, followed by 14 “free-choice” trials. In the first “forced-choice” trial, the animal was confined 5 seconds in the start arm and was then released while either the left or right goal arm was blocked by a horizontal door. After the mouse entered the open goal arm and returned to the start position, the left or right goal door was opened, and the animal was allowed to choose freely between the left and right goal arm (“free choice trials”). The animal was considered to have entered into an arm when it placed its four paws in the arm. Normal animals will choose to explore the previously-unexplored arm, which is recorded as a spontaneous alternation. […] The session was terminated, and the animal was removed from the maze as soon as 14 free-choice trials had been performed or 10 min had elapsed, whichever event occurred first.\nThis percentage was defined as entry into a different goal arm of the T maze over successive trials (e.g., left-right-left-right) and was calculated using the formula: (% alternations=Number of Alternations/14*100). Both compounds attenuated the degree of scopolamine-induced cognitive impairment, as indicated by increased percent of spontaneous alternations compared to scopolamine-only controls. Statistical analysis was accomplished via 1-way ANOVA with Dunnet's multiple comparisons post-test."}, "[4]": {"test": "In vivo tissue distribution", "parameters": "species or system Sprague-dawley rats", "settings": "rat, 10 minutes post administration", "description": "The rate of distribution to target tissues is an important feature of therapeutic molecules. Tissue distribution of exemplary compounds was performed in mixed-sex Sprague-dawley rats. Test compounds were delivered via tail vein injection (IV) and tissues were collected at Tmax (10 minutes post administration). Animals were deeply anesthetized with isoflurane and whole blood was collected from the right atrium and processed by centrifugation to produce plasma. Animals were then fully perfused with PBS administered to the left ventricle to prevent blood contamination of tissues.\nTissues were collected and homogenized, and compound content in the target tissue was quantified by LC-MS/MS. Tissue distribution rates were determined by dividing the tissue concentration of compound by the plasma concentration and multiplying by 100."}}}
{"smiles": "CCC(C)CN1CC2N(Cc3ccc(C(F)(F)F)cc3)CCC(=O)N2[C@@H](C)C1=O", "note": "(stereo partly shown) [Compound 5a]", "values": [{"measurement": "Human Plasma, compound remaining after 4 hours", "setting": "[1]", "result": "++ (++ indicates 40-79% compound remaining after 4 hours)"}, {"measurement": "Rat Plasma, compound remaining after 4 hours", "setting": "[2]", "result": "++ (++ indicates 40-79% compound remaining after 4 hours)"}, {"measurement": "Potency", "setting": "HGF/MET system", "result": "+ (+ indicates maximum potency at or above 100 nM)"}, {"measurement": "Spontaneous alternations %", "setting": "[3]; 1.25 mg/kg via PO", "result": 51, "unit": "%"}, {"measurement": "Significance (compared to scopolamine only)", "setting": "[3]; 1.25 mg/kg via PO", "result": "* (* = p < 0.05)"}, {"measurement": "Spontaneous alternations %", "setting": "[3]; 2.5 mg/kg via PO", "result": 57, "unit": "%"}, {"measurement": "Significance (compared to scopolamine only)", "setting": "[3]; 2.5 mg/kg via PO", "result": "** (** = p < 0.01)"}, {"measurement": "Spontaneous alternations %", "setting": "[3]; 5 mg/kg via PO", "result": 52, "unit": "%"}, {"measurement": "Significance (compared to scopolamine only)", "setting": "[3]; 5 mg/kg via PO", "result": "* (* = p < 0.05)"}, {"measurement": "Spontaneous alternations %", "setting": "[3]; 10 mg/kg via PO", "result": 55, "unit": "%"}, {"measurement": "Significance (compared to scopolamine only)", "setting": "[3]; 10 mg/kg via PO", "result": "** (** = p < 0.01)"}, {"measurement": "Spontaneous alternations %", "setting": "[3]; 20 mg/kg via PO", "result": 52, "unit": "%"}, {"measurement": "Significance (compared to scopolamine only)", "setting": "[3]; 20 mg/kg via PO", "result": "* (* = p < 0.05)"}, {"measurement": "Tissue Distribution (% Plasma exposure at 10 min post IV dose) Brain", "setting": "[4]", "result": "++++ (++++ indicates distribution above 70%)"}, {"measurement": "Tissue Distribution (% Plasma exposure at 10 min post IV dose) Cerebellum", "setting": "[4]", "result": "++++ (++++ indicates distribution above 70%)"}, {"measurement": "Tissue Distribution (% Plasma exposure at 10 min post IV dose) Cortex", "setting": "[4]", "result": "++++ (++++ indicates distribution above 70%)"}, {"measurement": "Tissue Distribution (% Plasma exposure at 10 min post IV dose) Hippocampus", "setting": "[4]", "result": "++++ (++++ indicates distribution above 70%)"}]}
{"smiles": "CCC(C)CN1CC2N(C(=O)c3ccc(C(F)(F)F)cc3)CCC(=O)N2[C@@H](C)C1=O", "note": "(stereo partly shown) [Compound 1a]", "values": [{"measurement": "Human Plasma, compound remaining after 4 hours", "setting": "[1]", "result": "++ (++ indicates 40-79% compound remaining after 4 hours)"}, {"measurement": "Rat Plasma, compound remaining after 4 hours", "setting": "[2]", "result": "++ (++ indicates 40-79% compound remaining after 4 hours)"}, {"measurement": "Potency", "setting": "HGF/MET system", "result": "++++ (++++ indicates maximum potency at or above 0.1 nM)"}, {"measurement": "Spontaneous alternations %", "setting": "[3]; 0.5 mg/kg via PO", "result": 52, "unit": "%"}, {"measurement": "Significance (compared to scopolamine only)", "setting": "[3]; 0.5 mg/kg via PO", "result": "** (** = p < 0.01)"}, {"measurement": "Spontaneous alternations %", "setting": "[3]; 2 mg/kg via PO", "result": 55, "unit": "%"}, {"measurement": "Significance (compared to scopolamine only)", "setting": "[3]; 2 mg/kg via PO", "result": "** (** = p < 0.01)"}, {"measurement": "Spontaneous alternations %", "setting": "[3]; 8 mg/kg via PO", "result": 47, "unit": "%"}, {"measurement": "Significance (compared to scopolamine only)", "setting": "[3]; 8 mg/kg via PO", "result": "ns"}, {"measurement": "Spontaneous alternations %", "setting": "[3]; 16 mg/kg via PO", "result": 51, "unit": "%"}, {"measurement": "Significance (compared to scopolamine only)", "setting": "[3]; 16 mg/kg via PO", "result": "* (* = p < 0.05)"}, {"measurement": "Spontaneous alternations %", "setting": "[3]; 32 mg/kg via PO", "result": 55, "unit": "%"}, {"measurement": "Significance (compared to scopolamine only)", "setting": "[3]; 32 mg/kg via PO", "result": "** (** = p < 0.01)"}, {"measurement": "Tissue Distribution (% Plasma exposure at 10 min post IV dose) Brain", "setting": "[4]", "result": "++ (++ indicates distribution between 5 and 39%)"}, {"measurement": "Tissue Distribution (% Plasma exposure at 10 min post IV dose) Cerebellum", "setting": "[4]", "result": "++ (++ indicates distribution between 5 and 39%)"}, {"measurement": "Tissue Distribution (% Plasma exposure at 10 min post IV dose) Cortex", "setting": "[4]", "result": "++ (++ indicates distribution between 5 and 39%)"}, {"measurement": "Tissue Distribution (% Plasma exposure at 10 min post IV dose) Hippocampus", "setting": "[4]", "result": "++ (++ indicates distribution between 5 and 39%)"}]}
